How the values were obtained:
[1] = model drug release into agarose gel; type: physicochemical; settings: PLGA II microneedle patch inserted into agarose gel, 5 days
Text: The Rhodamine B-loaded PLGA II microneedle patch is then inserted into an agarose gel with a parafilm layer. The gel becomes red after the insertion of PLGA II microneedle patch loaded with Rhodamine B after 5 days while the control sample is still white. The insertion holes created by PLGA II with Rhodamine B show a higher florescence intensity (right panel in FIG. 4A) compared with that of the agar inserted by pure PLGA II microneedle patch (left panel in FIG. 4A).

[2] = long-term drug release from PLGA microneedle patches in PBS; type: physicochemical; settings: loaded in PLGA II microneedle patch, PBS solution at 37° C., after 15 days
Experimental: In addition, the long-term drug release performance of the PLGA II microneedle patch is conducted by loading aspirin and ibuprofen, which are two commonly used drugs in anti-inflammation. Aspirin- and ibuprofen-loaded PLGA microneedle patches are immersed in PBS solution at 37° C. for one month. […] The aspirin releases more than 80% while ibuprofen releases around 70% after 15 days, indicating a promising drug delivery performance of the PLGA microneedles.
Commercial aspirin (99%, Rhawn) or ibuprofen (98%, Macklin) were dissolved in chloroform and mixed with PLGA solution, where the mass of aspirin and ibuprofen are the weight ratio of 10% and 5% of PLGA polymers, respectively. Then the composite solution was added in a PDMS microneedle mold. The solutions in the mold were put in a vacuum over at 40° C. until no solvent remained. Finally, the solidified PLGA microneedles with mold were put at 100° C. heating stage for 2 h to remove residual solvent. After that, the obtained PLGA microneedles were heat pressed on the wireless electric stimulative electrodes, followed by depositing W (˜1000 nm) on the PLGA microneedle to yield the conductive microneedle electrodes.

Structure (SMILES) | release of model drug from microneedle tips (fluorescence) [1] | drug release ratio [2]
CCN(CC)c1ccc2c(-c3ccccc3C(=O)O)c3ccc(=[N+](CC)CC)cc-3oc2c1.[Cl-] [Rhodamine B] | successfully released | 
CC(=O)Oc1ccccc1C(=O)O [aspirin] |  | more than 80%
CC(C)Cc1ccc(C(C)C(=O)O)cc1 (stereo not drawn) [ibuprofen] |  | around 70%

Source: patent publication US12539406B2, “Electrostimulation based drug delivery system and method for using thereof” (City University of Hong Kong, priority 2022, dated 2026)
